{"source": "patent US12295937B2", "about": "“Psychoactive medicines and their use for treating psychiatric and neurological conditions and disorders” (Transcend Therapeutics, Inc., priority 2021, dated 2025)", "key": {"[1]": {"molecular_target": "Human serotonin 5HT2B receptor (Homo sapiens, UniProt P41595)", "sequence (P41595 whole entry)": "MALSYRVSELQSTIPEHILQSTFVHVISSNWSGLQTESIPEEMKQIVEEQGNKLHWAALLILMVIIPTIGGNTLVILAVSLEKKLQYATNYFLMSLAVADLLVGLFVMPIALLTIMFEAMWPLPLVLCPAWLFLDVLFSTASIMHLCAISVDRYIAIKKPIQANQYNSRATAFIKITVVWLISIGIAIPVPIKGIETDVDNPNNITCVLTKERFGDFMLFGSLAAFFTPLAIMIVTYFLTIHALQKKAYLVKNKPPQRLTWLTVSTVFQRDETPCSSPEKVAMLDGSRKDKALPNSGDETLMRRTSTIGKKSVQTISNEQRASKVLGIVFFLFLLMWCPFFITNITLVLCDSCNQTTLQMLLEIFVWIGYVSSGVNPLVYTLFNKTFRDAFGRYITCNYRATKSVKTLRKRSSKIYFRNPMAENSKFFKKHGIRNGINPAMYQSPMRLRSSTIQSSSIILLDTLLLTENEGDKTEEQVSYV", "experiment": "Competitive radioligand binding to 5HT2B receptor membranes", "method": "Human serotonin 5HT2B receptor membrane preparations were divided into aliquots. On the day of the assay, membranes were diluted at 1:200 in incubation buffer. […] To each well was added 150 μL membrane preparation, 50 μL test compound, non-specific compound, or buffer alone, as well as 50 μL radioligand. The plate was incubated at 35° C. for 90 minutes with gentle agitation. […] For each concentration of drug, non-specific binding was subtracted from total binding to give specific binding. […] Ki was subsequently calculated using the ChengPrusoff equation."}, "DAT": {"molecular_target": "DAT (Rattus norvegicus, UniProt P23977)", "sequence (P23977 whole entry)": "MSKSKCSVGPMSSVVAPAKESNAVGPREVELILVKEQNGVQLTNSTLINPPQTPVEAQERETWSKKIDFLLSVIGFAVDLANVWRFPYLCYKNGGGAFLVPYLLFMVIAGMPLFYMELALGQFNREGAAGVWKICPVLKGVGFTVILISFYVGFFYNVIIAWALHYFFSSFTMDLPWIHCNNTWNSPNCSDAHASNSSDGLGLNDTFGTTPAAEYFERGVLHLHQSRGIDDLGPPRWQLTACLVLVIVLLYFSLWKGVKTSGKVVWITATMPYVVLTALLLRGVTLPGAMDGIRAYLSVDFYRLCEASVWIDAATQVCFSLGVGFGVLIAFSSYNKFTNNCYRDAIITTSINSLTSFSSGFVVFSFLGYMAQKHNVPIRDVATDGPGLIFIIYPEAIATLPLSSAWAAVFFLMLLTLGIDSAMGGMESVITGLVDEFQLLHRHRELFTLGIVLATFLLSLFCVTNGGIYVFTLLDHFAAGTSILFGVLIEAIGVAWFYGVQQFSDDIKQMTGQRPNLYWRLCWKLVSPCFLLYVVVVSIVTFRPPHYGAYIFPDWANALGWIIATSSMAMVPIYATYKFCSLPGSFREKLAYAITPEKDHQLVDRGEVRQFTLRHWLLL", "experiment": "[3H]DA release from rat brain synaptosomes", "format": "biochemical", "design": "from tissue; synaptosomes for uptake and release", "conditions": "rat brain synaptosomes; read-out: Neurotransmitter release: EC50", "method": "Test compounds and synaptosomes were prepared as described for uptake inhibition assays. Synaptosomes treated with [^3H]5-HT, [^3H]DA or [^3H]NE were loaded onto filter chambers containing GF/C filters and placed in a superfusion system. Oxygenated Krebs buffer was perfused through the chambers at a rate of 1.5 mL/minute at 35° C. using either an 8-channel or a 12-channel peristaltic pump. Trapped air bubbles were removed from the filters prior to collecting fractions to ensure an even flow over the synaptosomal bed. After a superfusion period of 45 minutes, 2 basal fractions were collected followed by 6 fractions following the addition of the test drug. […] Scintillation cocktail was added, and the filters counted to determine residual radioactivity. Drug-evoked release of neurotransmitter was calculated by subtracting the average of the two basal fractions (collected prior to the drug addition), from the four fractions collected in the presence of drug. The drug-evoked release was then expressed as a percentage of the basal release. Potassium-evoked release was calculated by subtracting the average of two fractions collected prior to the addition of high KCl buffer from that in the two fractions following addition of high KCl buffer. Potassium-stimulated release was calculated as a percentage of basal release. […]"}, "[2]": {"tested_on": "gene expression in amygdala, frontal cortex, hippocampus", "experiment": "RNA-sequencing of rat brain areas after a single dose", "format": "in vivo", "conditions": "for Genes differentially regulated vs. vehicle: 10 mg/kg IP, 8 hours"}, "[3]": {"experiment": "Rat Forced Swim Test (FST)", "format": "in vivo", "conditions": "for Reduction in immobility: single dose 30 min before test", "from_the_text": "The Forced Swim Test (FST) is a classic, and the most used preclinical behavioral assay to screen compounds with antidepressant-like activity and has high predictive and face validity (Porsolt et al. (1977) Nature 266:730; Borsini and Meli (1988) Psychopharmacology 94:147). The premise of the FST is that when rats are placed into a cylinder filled with water, they will initially try to escape, but over time will become immobile. This increased immobility reflects behavioral despair, modeling a depressive-like state.\nForced Swim Test (EST): In the FST trial, rats were placed in a circular plexiglass container filled with water, with no means of escape. Water temperature was maintained at 22-25° C. and changed for every animal. After an acclimation period, rats were timed for inactivity (failure to struggle), activity, swim time and climbing time. Day 1 consisted of a 15 min acclimation trial, and Day 2 (24 h later) consisted of the 5 min test. A time sampling procedure was employed where animals were observed every 5 sec and scored for immobility, swimming, or climbing. Fluoxetine (10 mg/kg, IP, Sigma Aldrich) or 0.9% sterile saline vehicle (vehicle 3× group) were administered 23.5, 5, and 1 h before testing in the FST. […] The experimenter was blinded to treatment.\nForced Swim Test: In the FST trial, rats were placed in a circular plexiglass container filled with water, with no means of escape. Water temperature was maintained at 22-25° C. and changed for every animal. After an acclimation period, rats were timed for inactivity (failure to struggle), activity, swim time and climbing time. Day 1 consisted of a 15 min acclimation trial, and Day 2 (24 h later) consisted of the 5 min test. A time sampling procedure was employed where animals were observed every 5 sec and scored for immobility, swimming, or climbing. Fluoxetine (10 mg/kg, IP, Sigma Aldrich) or 0.9% sterile saline vehicle (vehicle 3× group) were administered 23.5, 5, and 1 h before testing in the FST. 2C-B (2.5, 10, or 20 mg/kg, IP, Cayman Chemical) or 0.9% saline vehicle (vehicle 1× group) were administered 30 min prior to FST testing. The experimenter was blinded to treatment.\nDrug Treatment: Fluoxetine (10 mg/kg, IP, Sigma Aldrich) or 0.9% sterile saline vehicle were administered 23.5, 5, and 1 h before testing in the FST. […] Control animals received fluoxetine alone, methylone alone, or saline vehicle.\nForced Swim Test: In the FST trial, rats were placed in a circular plexiglass container filled with water, with no means of escape. Water temperature was maintained at 22-25° C. and changed for every animal. After an acclimation period, rats were timed for inactivity (failure to struggle), activity, swim time and climbing time. The experimenter and scorer were blind to treatment group. Day 1 consisted of a 15 min acclimation trial, and Day 2 (24 h later) consisted of the 5 min test. A time sampling procedure was employed where animals were observed every 5 sec and scored for immobility, swimming, or climbing.\nThe FST was performed and scored by an experimenter blind to treatment group according to standard protocols and based on a “modified FST” procedure (Slattery and Cryan (2012) Nat Protoc, 7:1009). Briefly, rats were placed in a circular plexiglass container (29.2 cm diameter, 49.5 cm height) filled with water to a depth of 30 cm so rats could not support themselves by touching the bottom of the tank. Water was maintained at 22-25° C. and was changed for every animal. Day 1 (Training) consisted of a 15 min acclimation trial, and Day 2 (Testing, 24 h later) consisted of the 5 min test. A time sampling procedure was employed where animals were observed every 5 seconds for the duration of the test session (60 counts or 5 minutes) and scored for immobility (defined as the failure to struggle), swimming (defined as a circular movement around the tank), or climbing (defined as an upwards escape behavior). […]"}}, "note": "pEC50, pIC50, pKi: −log10 of the molar value.", "data": [{"smiles": "CNC(C)C(=O)c1ccc2c(c1)OCO2", "note": "(stereo not shown) [Methylone, 3,4-methylenedioxy-N-methylcathinone]", "values": [{"measurement": "pIC50", "setting": "[1]", "value": 5.37}, {"measurement": "pKi", "setting": "[1]", "value": 5.43}, {"measurement": "pEC50", "setting": "DAT", "value": 5.32}, {"measurement": "Genes regulated by methylone that are also regulated by MDMA", "setting": "[2]; amygdala", "value": 87, "unit": "%"}, {"measurement": "Genes differentially regulated vs. vehicle", "setting": "[2]; amygdala, >25% change, padj<0.1", "value": 121, "unit": "genes"}, {"measurement": "Genes regulated by both treatments", "setting": "[2]; frontal cortex", "value": 154, "unit": "genes"}, {"measurement": "Genes significantly regulated", "setting": "[2]; frontal cortex, 10 mg/kg IP (Example 27)", "value": 480, "unit": "genes"}, {"measurement": "Genes differentially regulated vs. vehicle", "setting": "[2]; frontal cortex", "value": 471, "unit": "genes"}, {"measurement": "Genes differentially regulated vs. vehicle", "setting": "[2]; hippocampus", "value": 12, "unit": "genes"}, {"measurement": "Reduction in immobility", "setting": "[3]; 15 mg/kg IP", "value": 99, "unit": "%"}, {"measurement": "Antidepressant-like effect vs. vehicle", "setting": "[3]; 15 mg/kg PO, 2 hours before test", "value": "significant antidepressant-like effect"}, {"measurement": "Reduction in immobility", "setting": "[3]; 30 mg/kg IP", "value": 96, "unit": "%"}, {"measurement": "Reduced immobility vs. vehicle", "setting": "[3]; Methylone 5 mg/kg IP after three prior doses of fluoxetine 10 mg/kg", "value": 62, "unit": "%"}, {"measurement": "Reduced immobility vs. vehicle", "setting": "[3]; Methylone alone 5 mg/kg IP (Example 8)", "value": 71, "unit": "%"}, {"measurement": "Climbing behavior", "setting": "[3]; doses as worded", "value": "significantly increased climbing behavior"}, {"measurement": "Swimming behavior", "setting": "[3]; doses as worded", "value": "Mid and high doses of methylone significantly increased swimming"}, {"measurement": "Climbing behavior", "setting": "[3]; doses as worded, listed as methylone", "value": "Climbing was only increased at the lowest dose of methylone"}, {"measurement": "Antidepressant-like effect of multiple lower doses", "setting": "[3]; four […] IP doses 20.5, 8.5, 4.5, 0.5 h before test", "value": "significant antidepressant-like effects"}, {"measurement": "Immobility vs. saline vehicle", "setting": "[3]; single dose 5, 10, 15, 20 and 30 mg/kg IP, 30 min before test", "value": "significantly reduced immobility"}]}]}
